Results reported in article PMC9170688, “Gametocyte-specific and all-blood-stage transmission-blocking chemotypes discovered from high throughput screening on Plasmodium falciparum gametocytes” (Communications Biology, 2022).
Entries after “also recorded” stand apart in the source; their conditions may differ. Like-named read-outs stand apart in the source and are kept apart here.

What was measured:
[1] = tested on: P. falciparum NF54 hsp86-PpyRE13 asexual stages; test: P. falciparum asexual stage assay (pLDH); type: cell-based, Plasmodium falciparum; details: Plasmodium falciparum, NF54, read-out: NF54 Hsp86 PpYRE13 (IC50 nM)
Experimental: With the selected 84 compounds, the subsequent step aimed at determining the gametocyte inhibition potency and the parasite stage selectivity between the gametocytes and the asexual stages in the NF54 hsp86-PpyRE13. […] Similar data were obtained considering the gametocyte IC50 values measured in the NF54 pfs16-GFP-PyLUC strain (see Supplementary Data 2).
Parasite proliferation assays were performed in 384-well plates (Thermo, 4332, USA) with a starting parasitemia of 0.25% at a haematocrit of 2% by quantification of parasite lactate dehydrogenase (pLDH). Compounds or DMSO as control were pre dispensed on plates, from 10 mM DMSO stock solutions, via an acoustic droplet ejection device (ATS-100, EDC Biosystems) to achieve de final desired concentration. Assay plates were incubated for 72 h at 37 °C in 4% CO2, 3% O2, and 93% N2 modified atmosphere. After the incubation period, plates are frozen at −80 °C for two h and then thawed at room temperature for 2 h. Then, 50 µL of the developer solution (70 mM Tris-HCl pH 8.0, 0.5% Tween-20, 100 mM Lithium L-Lactate, 125 µM nitro blue tetrazolium, 2 U/ml diaphorase and 100 µM 3-Acetylpyridine Adenine Dinucleotide) are added to each well and let to react for 10 min. Absorbance was then read at 650 nm by a suitable spectrophotometer.

[2] = tested on: P. falciparum strain NF54-hsp70-luc stage V gametocytes fed to Anopheles stephensi mosquitoes; test: whole plant or invertebrate; type: in vivo, Plasmodium falciparum; details: for transmission blocking activity in SMFA (words, rank): tested at 1 and 10 µM
Experimental: The above selected 30 compounds were subjected to a phenotypic male gamete exflagellation assay. This assay measures the viability of male gametocytes by quantitating the final step of maturation into motile microgametes in vitro[24]. This process naturally occurs in the mosquito gut within minutes from the blood meal. The acquisition of time lapse videos of gamete motility in bright field microscopy and the subsequent analysis to count exflagellation centres were performed in an automated HTS format in 384-well plates. The compounds were tested in two independent biological replicates at the concentration of 1 µM. […] The standard membrane feeding assay (SMFA) is used to measure the parasite transmission through mosquito. In this assay, mature stage V gametocytes of the P. falciparum strain NF54-hsp70-luc were treated with 1 and 10 µM of the nine selected compounds for 24 h, added with human red blood cells and serum to achieve a haematocrit of 50% and then fed to mosquitoes. Luminescence was analyzed in the mosquito salivary glands 8 days post-feeding.
SMFA was performed commercially by TropiQ Health Sciences (Nijmegen, The Netherlands). Test samples were diluted in DMSO and then in RPMI medium (Gibco, 51800043) to achieve a final DMSO concentration of 0.1%. Diluted samples were combined with stage V gametocytes from P. falciparum strain NF54-hsp70-luc and incubated for 24 h. Subsequently, human red blood cells and human serum with the sample were added to achieve a haematocrit of 50%. The blood meal was fed to two-day old Anopheles stephensi mosquitoes that were starved the night prior to the blood meal. […] Mosquito infection was analyzed 8 days post-feeding by luminescence measurements of whole mosquitoes as described previously. For each feeder, luminescence intensity was analyzed in 15–24 mosquitoes per feeder (N = 1, n = 15–24). Luminescence background levels were determined from 15–24 uninfected mosquitoes. Controls: vehicle (0.1% DMSO) in duplicate.

[3] = tested on: P. falciparum NF54 male gametocytes (stage V); test: Male gamete exflagellation assay; type: cell-based, Plasmodium falciparum; details: for Inhibition of male exflagellation at 1 µM: 48 h; for activity at 1 µM: Plasmodium falciparum
Experimental: The above selected 30 compounds were subjected to a phenotypic male gamete exflagellation assay. This assay measures the viability of male gametocytes by quantitating the final step of maturation into motile microgametes in vitro[24]. This process naturally occurs in the mosquito gut within minutes from the blood meal. The acquisition of time lapse videos of gamete motility in bright field microscopy and the subsequent analysis to count exflagellation centres were performed in an automated HTS format in 384-well plates. The compounds were tested in two independent biological replicates at the concentration of 1 µM. […] The results of this study led to the identification of 16 compounds with anti-exflagellation activity (Fig. 4). […] The standard membrane feeding assay (SMFA) is used to measure the parasite transmission through mosquito. In this assay, mature stage V gametocytes of the P. falciparum strain NF54-hsp70-luc were treated with 1 and 10 µM of the nine selected compounds for 24 h, added with human red blood cells and serum to achieve a haematocrit of 50% and then fed to mosquitoes. Luminescence was analyzed in […] 8 days post-feeding.
Asexual parasites of the NF54 line, kindly obtained from Elena Levashina’s laboratory (Max Plank Institute for Infection Biology, Berlin, Germany), were seeded at 1% total parasitemia and grown for 16 days changing medium every day until development of stage V gametocytes (about 1–2% of stage V gametocytemia). 100 µl of gametocyte culture was seeded in each well of a 96 well-plate and 100 µl of 2× concentration of compounds or DMSO as control were added to each well to achieve the desired final concentration. Assay plates were incubated for 48 h at 37 °C in 4% CO2, 3% O2, and 93% N2 modified atmosphere. After the incubation period, 100 µl of medium were removed from each well and the other 100 µl were transferred to a black imaging 96 well plate (ibidi) containing 100 µl of complete medium supplemented with 40 µM of xanthurenic acid. After 15 min, exflagellation events were captured by three ten-second videos each well with an Olympus IX83 inverted microscope with a UPLSAPO 10× N.A. 0.75 objective (Olympus, Japan), equipped with a Hamamatsu ORCA-Flash 4.0 V3 camera. Each video was analyzed using the Icy bio-image analysis software (http://icy.bioimageanalysis.org/) to count the number of exflagellation events.

[4] = NF54, read-out: Exflagellation @ 1 uM (% of DMSO) 1
[5] = NF54, read-out: Exflagellation @ 1 uM (% of DMSO) 2

Row | SMILES | IC50 [1] [nM] | SMFA (average # of events) 1 µM ([2]; 1 µM) | SMFA (average # of events) 10 µM [2] | Inhibition of male exflagellation at 1 µM ([3]; 1 µM, Replicate 1) | Inhibition of male exflagellation at 1 µM ([3]; 1 µM, Replicate 2) | activity at 1 µM [3, 4] [%] | activity at 1 µM [3, 5] [%] | transmission blocking activity in SMFA (words, rank) ([2]; 24 h treatment) | transmission blocking in SMFA ([2]; 1 µM, 24 h treatment) | inhibition at 1 µM ([2]; read-out: inhibition of parasite transmission (SMFA)) [%] | male gamete exflagellation reduced to ([3]; 1 µM)
1 | COc1ccc(NC(=O)Nc2ccc(Nc3nc(C)cc(Nc4ccc(C)cc4)n3)cc2)cc1 [Compound 65] | 904 | 4000.86 ± 3085.37 | 5.96 ± 1.99 | 5.085 | 52.8 | 5.08 | 52.8 | – | – | – | –
2 | Cc1ccc(Nc2cc(C)nc(Nc3ccc(NC(=O)c4cc5ccccc5oc4=O)cc3)n2)cc1 [Compound 63] | 1730 | 2365.33 ± 1952.29 | 6.33 ± 1.79 | 62.7119 | 21.3333 | 62.7 | 21.3 | – | – | – | –
3 | COc1ccc(Nc2cc(C)nc(Nc3ccc(NC(=O)c4cc(C)cc(C)c4)cc3)n2)cc1 [Compound 64] | 437 | 3707.46 ± 3510.94 | 3885.67 ± 4295.41 | 108.475 | 123.2 | 108 | 123 | – | – | – | –
4 | Clc1ccc(Nc2nc(-c3ccccn3)cs2)nc1 [Compound 39] | 540 | 1612.33 ± 1234.03 | 7.33 ± 2.82 | 30.5085 | 73.2558 | 30.5 | 73.3 | efficiently blocks parasite transmission | – | – | –
5 | Cc1ccc2nc(-c3ccccc3)c(CSc3cccc[n+]3[O-])n2c1 [Compound 16] | 1270 | 1226.92 ± 1130.89 | 9.5 ± 9.34 | 23.1 | 19.2 | 23.1 | 19.2 | third most active | – | – | –
6 | COc1cc(CNCC2CCNCC2)ccc1OCc1cccc(Cl)c1 [Compound 53] | 2360 | 10.04 ± 12.81 | 6.29 ± 1.85 | 19.2 | 35.9 | 19.2 | 35.9 | – | most active; also recorded: equivalent to that of the positive control MMV0048 | ~100 | 20–30%
7 | COc1ccccc1Cn1cc2c(-c3ccc(F)cc3)nnc-2c2cc(OC)c(OC)cc21 [Compound 31] | 967 | 2637.13 ± 1570.14 | 1559.87 ± 983.2 | 80.597 | 111.628 | 80.6 | 112 | moderate transmission blocker | – | – | –
8 | OC(c1ccc(Cl)cc1)C1CCN(CCCN2CCC(C(O)c3ccc(Cl)cc3)CC2)CC1 (centres unmarked) [Compound 13] | 1740 | 488.21 ± 436.95 | 7.92 ± 1.44 | 15.4 | 64.1 | 15.4 | 64.1 | second most active | – | – | –
9 | O=C(c1ccc([N+](=O)[O-])o1)N1CCC(Cn2cnc3ccccc32)CC1 [Compound 69] | 6150 | 2021.92 ± 1839.86 | 6.17 ± 1.81 | – | – | 17.3 | 57.7 | – | – | – | –
